Assay results from paper PMC9081605, “A High-Throughput Toxicity Screen of 42 Per- and Polyfluoroalkyl Substances (PFAS) and Functional Assessment of Migration and Gene Expression in Human Placental Trophoblast Cells” (Frontiers in Toxicology, 2022).

Tested on: JEG-3 cells
Experiment: Gene expression, custom NanoString code set of 46 genes
Assay type: cell-based, human
Description: JEG-3 cells were seeded at a density of 80,000 cells per well in six well plates and allowed to adhere overnight (24 h). The following day, media was removed and replaced with exposure media, then returned to the incubator for 24 h. The test compounds included non-cytotoxic concentrations of PFOA (0, 1, and 100 µM) and GenX (0, 3, 300 µM). These test compounds were selected a priori due to their high public health relevance. Each 6 well plate contained the three concentrations for either PFOA or GenX, with each condition in technical duplicate. Plates containing these PFOA or GenX exposure conditions were replicated three times (N = 3). After 24 h, exposure media was aspirated and cells were washed in ice cold 1xPBS, which was then aspirated. Each well received 500 µl of TRIzol reagent (Thermo Fisher Scientific, MA, United States) and cells were harvested in the TRIzol using a cell scraper. Technical duplicate wells within a plate were combined to generate a single sample of ∼1,000 µl. RNA was isolated from the resulting cellular homogenate using RNeasy Mini Kits (Qiagen, Hilden, Germany). Isolated RNA quality was validated and concentration determined using a NanoDrop 2000 (Thermo Fisher Scientific, MA, United States). 100 ng of mRNA from each sample was then analyzed using a custom gene expression code set (NanoString, Seattle, WA, United States). The custom code set included 46 genes selected for their downstream involvement in placental development (e.g., WNT4), endocrine signaling (e.g., CYP19A1), fetal growth/nutrient sensing (e.g., IGF2), inflammation (e.g., IL6), oxidative stress (e.g., SOD1, GPX1), and xenobiotic transport/metabolism (e.g., ABCG2, MRP3).
Gene expression data were quantified using the nCounter Digital Analyzer (NanoString, Seattle, WA, United States) and raw and adjusted counts were generated with nSolver (v4.0) software (NanoString, Seattle, WA, United States). Data were adjusted utilizing the manufacturer’s positive and negative experimental control probes, as well as housekeeping genes (ACTA2, ACTB, B2M, LDHA, RNA18S5, and ROLYR2L). All samples passed nSolver’s initial QA/QC controls and replicates were very well correlated with R ^2 values greater than 0.99. Adjusted data were then imported into Partek v7.0 (St. Louis, MO, United States), log2 transformed and quantile normalized for further QA/QC and statistical analyses. Genes with mRNA counts below the detection threshold of 20 were removed due to suboptimal probe hybridization (N = 2 genes for GenX; GH2 and IGFBP5). Fold change values were analyzed by ANOVA with post hoc false discovery rate adjustment (FDR) of p < 0.1. Normalized gene expression values were visualized using pheatmap with Euclidean clustering of genes and concentration groups ([Kolde and Kolde, 2015]).

N.O=C(O)C(F)(OC(F)(F)C(F)(F)C(F)(F)F)C(F)(F)F (centres unmarked) [Ammonium perfluoro-2-methyl-3-oxahexanoate]
11BHSD2 gene expression, fold change over untreated control (3 µM, 24 h): -1.00
17BHSD1 gene expression, fold change over untreated control (3 µM, 24 h): -1.11
AHR gene expression, fold change over untreated control (3 µM, 24 h): 1.04
AHRR gene expression, fold change over untreated control (3 µM, 24 h): 1.18
CAT gene expression, fold change over untreated control (3 µM, 24 h): 1.02
CGB5 gene expression, fold change over untreated control (3 µM, 24 h): 1.08
COX2 gene expression, fold change over untreated control (3 µM, 24 h): 1.27
CTNNB1 gene expression, fold change over untreated control (3 µM, 24 h): 1.00
CYP1A1 gene expression, fold change over untreated control (3 µM, 24 h): -1.22
CYP2E1 gene expression, fold change over untreated control (3 µM, 24 h): -1.26
CYP3A5 gene expression, fold change over untreated control (3 µM, 24 h): 1.19
CYP3A7 gene expression, fold change over untreated control (3 µM, 24 h): 1.01
CYP19A1 gene expression, fold change over untreated control (3 µM, 24 h): -1.03
EGFR gene expression, fold change over untreated control (3 µM, 24 h): 1.00
ENG gene expression, fold change over untreated control (3 µM, 24 h): 1.04
ESRRA gene expression, fold change over untreated control (3 µM, 24 h): 1.00
ESRRG gene expression, fold change over untreated control (3 µM, 24 h): -1.16
GHR gene expression, fold change over untreated control (3 µM, 24 h): 1.15
GPER1 gene expression, fold change over untreated control (3 µM, 24 h): -1.02
HIF1A gene expression, fold change over untreated control (3 µM, 24 h): 1.00
IGF2 gene expression, fold change over untreated control (3 µM, 24 h): 1.00
IGFR1 gene expression, fold change over untreated control (3 µM, 24 h): -1.02
IGFR2 gene expression, fold change over untreated control (3 µM, 24 h): 1.04
IL6 gene expression, fold change over untreated control (3 µM, 24 h): -1.23
MRP1 gene expression, fold change over untreated control (3 µM, 24 h): -1.05
MRP2 gene expression, fold change over untreated control (3 µM, 24 h): 1.05
MRP3 gene expression, fold change over untreated control (3 µM, 24 h): 1.07
NFKB1 gene expression, fold change over untreated control (3 µM, 24 h): 1.03
NFKB2 gene expression, fold change over untreated control (3 µM, 24 h): -1.07
NR3C1 gene expression, fold change over untreated control (3 µM, 24 h): 1.00
PGF gene expression, fold change over untreated control (3 µM, 24 h): 1.00
PMM1 gene expression, fold change over untreated control (3 µM, 24 h): -1.05
ROLYR2L gene expression, fold change over untreated control (3 µM, 24 h): 1.00
SLC2A1 gene expression, fold change over untreated control (3 µM, 24 h): -1.04
SOD1 gene expression, fold change over untreated control (3 µM, 24 h): 1.00
TGFB1 gene expression, fold change over untreated control (3 µM, 24 h): -1.04
VEGFA gene expression, fold change over untreated control (3 µM, 24 h): 1.04
VEGFB gene expression, fold change over untreated control (3 µM, 24 h): 1.00
WNT4 gene expression, fold change over untreated control (3 µM, 24 h): 1.08
WNT6 gene expression, fold change over untreated control (3 µM, 24 h): -1.09
WNT7B gene expression, fold change over untreated control (3 µM, 24 h): 1.07
mTOR gene expression, fold change over untreated control (3 µM, 24 h): 1.00
11BHSD2 gene expression, fold change over untreated control (300 µM, 24 h): -1.01
AHR gene expression, fold change over untreated control (300 µM, 24 h): -1.04
AHRR gene expression, fold change over untreated control (300 µM, 24 h): 1.19
CAT gene expression, fold change over untreated control (300 µM, 24 h): -1.05
CGB5 gene expression, fold change over untreated control (300 µM, 24 h): 1.11
COX2 gene expression, fold change over untreated control (300 µM, 24 h): 1.27
CYP1A1 gene expression, fold change over untreated control (300 µM, 24 h): -1.16
CYP2E1 gene expression, fold change over untreated control (300 µM, 24 h): 1.04
CYP3A5 gene expression, fold change over untreated control (300 µM, 24 h): -1.83
CYP3A7 gene expression, fold change over untreated control (300 µM, 24 h): -1.25
CYP19A1 gene expression, fold change over untreated control (300 µM, 24 h): -1.29
ENG gene expression, fold change over untreated control (300 µM, 24 h): -1.04
ESRRA gene expression, fold change over untreated control (300 µM, 24 h): 1.19
ESRRG gene expression, fold change over untreated control (300 µM, 24 h): 1.00
GHR gene expression, fold change over untreated control (300 µM, 24 h): 1.11
HIF1A gene expression, fold change over untreated control (300 µM, 24 h): 1.05
IGFR1 gene expression, fold change over untreated control (300 µM, 24 h): -1.10
IGFR2 gene expression, fold change over untreated control (300 µM, 24 h): -1.00
IL6 gene expression, fold change over untreated control (300 µM, 24 h): -1.51
MRP1 gene expression, fold change over untreated control (300 µM, 24 h): 1.14
MRP2 gene expression, fold change over untreated control (300 µM, 24 h): 1.00
MRP3 gene expression, fold change over untreated control (300 µM, 24 h): 1.44
NFKB1 gene expression, fold change over untreated control (300 µM, 24 h): 1.03
NFKB2 gene expression, fold change over untreated control (300 µM, 24 h): -1.04
NR3C1 gene expression, fold change over untreated control (300 µM, 24 h): 1.00
PGF gene expression, fold change over untreated control (300 µM, 24 h): -1.00
PMM1 gene expression, fold change over untreated control (300 µM, 24 h): 1.05
ROLYR2L gene expression, fold change over untreated control (300 µM, 24 h): 1.00
SLC2A1 gene expression, fold change over untreated control (300 µM, 24 h): -1.13
TGFB1 gene expression, fold change over untreated control (300 µM, 24 h): 1.00
VEGFA gene expression, fold change over untreated control (300 µM, 24 h): 1.27
VEGFB gene expression, fold change over untreated control (300 µM, 24 h): -1.01
WNT4 gene expression, fold change over untreated control (300 µM, 24 h): 1.20
WNT6 gene expression, fold change over untreated control (300 µM, 24 h): -1.09
WNT7B gene expression, fold change over untreated control (300 µM, 24 h): -1.12
mTOR gene expression, fold change over untreated control (300 µM, 24 h): 1.00
number of genes with significantly altered expression (of 46) (300 µM, 24 h, FDR p < 0.1): 15 genes
lowest concentration inducing significant dysregulated expression of placental genes (after 24 h of exposure): 3 µM
